Assay results taken from ChEMBL document CHEMBL3588758, “Structure-Affinity Relationships (SARs) and Structure-Kinetics Relationships (SKRs) of Kv11.1 Blockers” (J Med Chem, 2015).

Legend:
[1] = molecular target: T1, Voltage-gated inwardly rectifying potassium channel KCNH2 (Homo sapiens, UniProt Q12809)
[2] = molecular target: T1, Voltage-gated inwardly rectifying potassium channel KCNH2; remark: listed apart in the source
[3] = molecular target: T2, Kv11.1 (KCNH2, hERG) (Homo sapiens, UniProt Q12809); test: in vitro
[4] = molecular target: T2, Kv11.1 (KCNH2, hERG); test: in vitro; remark: listed apart in the source
[5] = molecular target: T2, Kv11.1 (KCNH2, hERG); test: in vitro; remark: listed apart in the source
[6] = molecular target: T1, Voltage-gated inwardly rectifying potassium channel KCNH2; remark: listed apart in the source
Description: Inhibition of human Kv11.1 expressed in HEK293 cells assessed as inhibition of channel tail current at holding potential -80 mV by whole cell voltage clamp assay

T1 sequence (Q12809 whole entry): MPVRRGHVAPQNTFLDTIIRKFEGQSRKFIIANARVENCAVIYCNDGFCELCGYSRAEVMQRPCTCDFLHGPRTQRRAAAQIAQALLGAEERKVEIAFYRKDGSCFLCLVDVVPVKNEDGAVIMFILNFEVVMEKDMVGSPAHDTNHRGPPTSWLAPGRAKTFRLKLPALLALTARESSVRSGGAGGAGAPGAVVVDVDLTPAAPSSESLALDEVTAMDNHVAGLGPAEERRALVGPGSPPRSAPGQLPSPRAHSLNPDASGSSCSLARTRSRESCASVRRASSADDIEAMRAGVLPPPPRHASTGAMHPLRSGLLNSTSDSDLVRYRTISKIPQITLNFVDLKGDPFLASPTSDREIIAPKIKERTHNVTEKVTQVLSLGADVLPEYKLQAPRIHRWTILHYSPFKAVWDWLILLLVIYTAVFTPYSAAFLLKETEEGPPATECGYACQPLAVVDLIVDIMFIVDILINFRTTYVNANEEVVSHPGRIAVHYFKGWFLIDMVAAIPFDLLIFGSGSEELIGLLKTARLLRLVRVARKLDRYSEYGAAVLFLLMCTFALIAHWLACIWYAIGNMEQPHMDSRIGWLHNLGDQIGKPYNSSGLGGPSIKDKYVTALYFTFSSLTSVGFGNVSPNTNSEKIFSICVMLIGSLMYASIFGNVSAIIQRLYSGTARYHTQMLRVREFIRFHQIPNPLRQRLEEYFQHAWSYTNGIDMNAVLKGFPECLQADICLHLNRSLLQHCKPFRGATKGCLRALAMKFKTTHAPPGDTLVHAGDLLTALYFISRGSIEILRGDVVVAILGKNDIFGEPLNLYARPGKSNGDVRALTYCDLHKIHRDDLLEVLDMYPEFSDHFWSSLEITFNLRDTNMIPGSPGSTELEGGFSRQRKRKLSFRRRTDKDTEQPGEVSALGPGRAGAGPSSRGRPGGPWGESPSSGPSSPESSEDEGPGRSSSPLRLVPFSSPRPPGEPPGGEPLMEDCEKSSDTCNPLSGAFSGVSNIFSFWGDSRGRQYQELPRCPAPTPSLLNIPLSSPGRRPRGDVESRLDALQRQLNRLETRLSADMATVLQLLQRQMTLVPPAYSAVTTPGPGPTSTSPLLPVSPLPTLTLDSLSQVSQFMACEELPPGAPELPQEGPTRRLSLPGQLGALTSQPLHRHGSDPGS
T2 sequence (Q12809 whole entry): as above

| SMILES | Ki [1] [nM] | Kd [2] [nM] | kon ([3]; hek293) [M⁻¹ s⁻¹] | koff ([4]; hek293) [s⁻¹] | residence time ([5]; hek293) [min] | IC50 [6] [nM] | kon ([3]; hek293, probe [3H]dofetilide) [M⁻¹ s⁻¹] | koff ([4]; hek293, probe [3H]dofetilide) [s⁻¹] | residence time ([5]; hek293, probe [3H]dofetilide) [min] |
| --- | --- | --- | --- | --- | --- | --- | --- | --- | --- |
| CN(CCCCOc1ccc([N+](=O)[O-])cc1)CCc1ccc([N+](=O)[O-])cc1 | 1.6 | 0.73 | 1.07e+07 | 0.00433 | 3.8 |  |  |  |  |
| C[n+]1c(C#Cc2ccc(-c3ccccc3)cc2)cccc1C#Cc1ccc(-c2ccccc2)cc1 | 86 | 132 | 1250 | 0.000158 | 105 | 107 |  |  |  |
| CN(CCOc1ccc([N+](=O)[O-])cc1)CCc1ccc([N+](=O)[O-])cc1 | 24 | 20 | 683000 | 0.0137 | 1.2 |  |  |  |  |
| Cc1ccc(-c2ccc(C#Cc3cccc(C#Cc4ccc(-c5ccc(C)cc5)cc4)[n+]3C)cc2)cc1 | 303 | 440 |  |  |  |  | 1430 | 0.00055 | 30 |
| N#CCN(CCOc1ccc([N+](=O)[O-])cc1)CCc1ccc([N+](=O)[O-])cc1 | 203 | 99 | 76700 | 0.00667 | 2.5 |  |  |  |  |
| CN(CCOc1ccc(Cl)c(Cl)c1)CCc1ccc(Cl)c(Cl)c1 | 5570 | 5810 |  |  |  |  | 1030 | 0.00317 | 5.3 |
| O=C(c1ccc(Cl)cc1)C1CCN(CCc2ccc(Cl)c(Cl)c2)CC1 | 54 | 36 | 350000 | 0.0065 | 2.6 |  |  |  |  |
| CCCCCCCCCCCCc1cccc(CCCCCCCCCCCC)[n+]1C | 108 | 153 |  |  |  |  | 3000 | 0.000467 | 36 |
| CCCCCCCCc1cccc(CCCCCCCC)n1 | 36900 | 191000 | 4.67 | 0.000867 | 19 |  |  |  |  |
| CCCCCCCc1cccc(CCCCCCC)[n+]1C | 0.28 | 0.44 |  |  |  |  | 4.17e+06 | 0.00167 | 10 |
| Cc1ccccc1-c1ccc(C#Cc2cccc(C#Cc3ccc(-c4ccccc4C)cc3)[n+]2C)cc1 | 577 | 203 | 5830 | 0.00118 | 14 |  |  |  |  |
| C[n+]1c(C#Cc2ccc(-c3cccc(Cl)c3)cc2)cccc1C#Cc1ccc(-c2cccc(Cl)c2)cc1 | 139 | 135 | 1380 | 0.000183 | 91 |  |  |  |  |
| C[n+]1c(CCc2ccc(-c3ccccc3)cc2)cccc1CCc1ccc(-c2ccccc2)cc1 | 63 | 60 |  |  |  |  | 26700 | 0.00163 | 10 |
| C[n+]1c(C#Cc2ccc(-c3ccc(O)cc3)cc2)cccc1C#Cc1ccc(-c2ccc(O)cc2)cc1 | 153 | 103 |  |  |  |  | 8500 | 0.000883 | 19 |
| C(#Cc1cccc(C#Cc2ccc(-c3ccccc3)cc2)n1)c1ccc(-c2ccccc2)cc1 | > 100000 |  |  |  |  |  |  |  |  |
| C[N+]1(CCc2ccccc2)CCC(C(=O)c2ccc(Cl)cc2)CC1 (configuration not stated) | 48 | 18 | 800000 | 0.00583 | 2.9 |  |  |  |  |
| CCCCCCCCCCC#Cc1cccc(C#CCCCCCCCCCC)[n+]1C | 1180 | 4260 |  |  |  |  | 550 | 0.002 | 8.3 |
| CCN(CCOc1ccc([N+](=O)[O-])cc1)CCc1ccc([N+](=O)[O-])cc1 | 4.2 | 3 |  |  |  |  | 2.5e+06 | 0.00433 | 3.8 |
| O=C(c1ccccc1)N1CCN(CCc2ccccc2)CC1 | 5420 | 1810 |  |  |  |  | 4500 | 0.00767 | 2.2 |
| CCCN(CC)CC#Cc1ccc(C)cc1 | 1200 | 637 |  |  |  |  | 5170 | 0.0025 | 6.7 |
| COc1cccc(-c2ccc(C#Cc3cccc(C#Cc4ccc(-c5cccc(OC)c5)cc4)[n+]3C)cc2)c1 | 176 | 125 | 6170 | 0.000783 | 21 |  |  |  |  |
| COc1ccc(CCN(C)CCOc2ccccc2)cc1 | 944 | 591 |  |  |  |  | 9330 | 0.005 | 3.3 |
| CCCCCCCCCc1cccc(CCCCCCCCC)[n+]1C | 3.4 | 4 |  |  |  |  | 300000 | 0.00115 | 14 |
| CCCCCCCCCCc1cccc(CCCCCCCCCC)[n+]1C | 17 | 37 | 28300 | 0.00107 | 16 |  |  |  |  |
| CCCCCCC[N+](CC)(CC)CC#Cc1ccc(Cl)cc1 | 1.8 | 1.2 | 2.83e+06 | 0.00217 | 7.7 |  |  |  |  |
| CC(=O)N(CCOc1ccc([N+](=O)[O-])cc1)CCc1ccc([N+](=O)[O-])cc1 | 251 | 132 |  |  |  |  | 163000 | 0.03 | 0.56 |
| CCCCCCc1cccc(CCCCCC)[n+]1C | 12 | 12 | 333000 | 0.00383 | 4.3 |  |  |  |  |
| C[n+]1c(C#Cc2ccc(-c3ccc(Cl)cc3)cc2)cccc1C#Cc1ccc(-c2ccc(Cl)cc2)cc1 | 71 | 100 | 2670 | 0.000267 | 63 |  |  |  |  |
| O=C(N(CCOc1ccc([N+](=O)[O-])cc1)CCc1ccc([N+](=O)[O-])cc1)C(F)(F)F | 355 | 247 | 41700 | 0.0102 | 1.6 |  |  |  |  |
| O=[N+]([O-])c1ccc(CCNCCOc2ccc([N+](=O)[O-])cc2)cc1 | 47 | 53 | 90000 | 0.0045 | 3.7 |  |  |  |  |
